In brackets after ≈: the same amount, converted by molar mass. Read-outs that look alike come from different tables or passages of the source.
Experiments:
[1] = biological target: T1, H. pylori MTAN (Helicobacter pylori, UniProt Q9ZMY2); test: Ki determination: inhibition of recombinant HpMTAN, xanthine oxidase coupled assay, 5′-methylthioadenosine as substrate; type: biochemical
T1 construct: His6 (N); made in house; host or cells: E. coli BL21 (DE3)
T1 sequence (Q9ZMY2 1-230): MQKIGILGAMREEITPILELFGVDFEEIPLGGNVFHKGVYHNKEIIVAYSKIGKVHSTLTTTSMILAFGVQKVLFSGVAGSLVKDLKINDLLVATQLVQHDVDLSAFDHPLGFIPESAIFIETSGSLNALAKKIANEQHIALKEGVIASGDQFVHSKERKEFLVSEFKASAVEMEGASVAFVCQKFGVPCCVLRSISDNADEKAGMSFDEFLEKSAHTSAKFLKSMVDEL
Method: The purification procedure of HpMTAN was described previously^10. Briefly, BL21 (DE3) cells harboring a plasmid encoding HpMTAN with an N-terminal His6-tag were grown to an optical density of 0.7 measured at 595 nm and IPTG was introduced to a final concentration of 0.5 mM. After another 15 h at 22° C., cells were collected by centrifugation. The pellet was suspended and later disrupted by pressure cell and sonication. The soluble portion was applied to a Ni-NTA column and HpMTAN was eluted with an imidazole concentration gradient of 200 to 500 mM. The protein was desalted using a Superdex G15 gel-filtration column then equilibrated and concentrated in 10 mM Hepes, 30 mM KCl, pH 7.6. The purity was confirmed by SDS-PAGE.
Kinetics of HpMTAN were determined using a direct assay involving absorbance decrease at 274 nm continuously as a consequence of formation of free adenine from 5′-methylthioadenosine. The Ki and Ki* values of BuT-DADMe-ImmA (30) were determined using coupled assays, in which xanthine oxidase was used as the coupling enzyme and absorbance increase was followed at 292 nm as the product adenine is converted to 2,8-dihydroxyadenine. Both assays have been previously described
BuT-DADMe-ImmA (30) was previously characterized as a transition state analogue inhibitor of EcMTAN (FIG. 1C)^8. Here, inhibition assays were performed using BuT-DADMe-ImmA against recombinant HpMTAN with 5′-methylthioadenosine as substrate. Purified HpMTAN uses both 5′-methylthioadenosine and 6-amino-6-deoxyfutalosine as facile substrates. […] The low Kd value supports the proposal that BuT-DADMe-ImmA is a transition state analogue inhibitor for HpMTAN. […] The nitrogen of the hydroxypyrrolidine moiety has a pKa value of 9, and thus mimics the positive charge of a ribocation at the transition state. The methylene bridge extends the distance between the sugar and the purine base leaving group, as this distance is near 3 Å at the transition state. The 9-deazaadenine alters conjugation in the purine ring, causing an elevated pKa and protonation of N7, resembling the N7-protonated adenine leaving group at the transition state.

[2] = tested on: H. pylori; test: H. pylori growth on tryptic soy agar with 5% horse blood (MIC); type: cell-based, Helicobacter pylori; conditions: Helicobacter pylori, read-out: Inhibition of H. pylori growth MIC90
Method: H. pylori were grown for 72 hours under microaerophilic condition (5% O2, 10% CO2 and 85% N2) at 37° C. on tryptic soy agar with 5% horse blood. To determine the MIC values, the test substance was added to the gel solution right before pouring. To compare the zones of inhibition, specific antibiotics were added to the center of disc after spreading H. pylori, and then H. pylori was allowed to grow for 72 hours under microaerophilic condition at 37° C.
The effects of BuT-DADMe-ImmA (30) were tested on H. pylori growing on 5% horse blood agar. At 6 ng/ml, slight growth was detected and at 8 ng/ml, no growth was detected, therefore the MIC90 value for inhibition of H. pylori growth is <8 ng/ml (FIG. 3A).

[3] = Table 3, DADMe-Immucillin-A series, initial inhibition constant, read-out: Inhibition of H. pylori MTAN Ki
[4] = Table 3, equilibrium dissociation constant after slow onset, read-out: Inhibition of H. pylori MTAN Ki*
[5] = Table 3, agar plate, 72 hours, microaerophilic
[6] = Table 4, Immucillin-A series, read-out: Inhibition of H. pylori MTAN Ki
[7] = 72 h, Table 4, Immucillin-A series

Nc1ncnc2c(CN3CC(O)[C@@H](CSCCOCCO)C3)c[nH]c12 (stereo partly drawn) [Compound 13, (4S)-1-((4-Amino-5H-pyrrolo[3,2-d]pyrimidin-7-yl)methyl)-4-(((2-(2-hydroxyethoxyl)ethyl)thio)methyl)pyrrolidin-3-ol]
Ki [1, 3]: 0.96 ± 0.16 nM
Ki [1, 4]: 0.015 ± 0.004 nM
MIC90 [2, 5]: 0.035 to 0.07 µg/mL (≈ 0.0952 to 0.19 µM)

Nc1ncnc2c(CN3C[C@H](CSc4nccs4)[C@@H](O)C3)c[nH]c12 [Compound 29]
Ki [1, 3]: 0.24 ± 0.07 nM
Ki [1, 4]: 0.016 ± 0.005 nM
MIC90 [2, 5]: 0.02 µg/mL (≈ 0.0552 µM)

Nc1ncnc2c(CN3C[C@H](CCSCCO)[C@@H](O)C3)c[nH]c12 [Compound 16, (3R,4S)-1-({4-Amino-5H-pyrrolo[3,2-d]pyrimidin-7-yl}methyl)-4-{2-[(2-hydroxyethyl)thio]ethyl}pyrrolidin-3-ol]
Ki [1, 3]: 0.26 ± 0.03 nM
Ki [1, 4]: 0.05 ± 0.01 nM
MIC90 [2, 5]: 0.08 µg/mL (≈ 0.237 µM)

Nc1ncnc2c(CN3CC(O)[C@@H](CSCCCCO)C3)c[nH]c12 (stereo partly drawn) [Compound 12, (4S)-1-((4-Amino-5H-pyrrolo[3,2-d]pyrimidin-7-yl)methyl)-4-(((4-hydroxybutyl)thio)methyl)pyrrolidin-3-ol]
Ki [1, 3]: 0.34 ± 0.07 nM
Ki [1, 4]: 0.11 ± 0.04 nM
MIC90 [2, 5]: 0.02 µg/mL (≈ 0.0569 µM)

CCC[C@H]1CN(Cc2c[nH]c3c(N)ncnc23)C[C@@H]1O [Compound 35]
Ki [1, 3]: 0.053 ± 0.007 nM
MIC90 [2, 5]: 0.016 µg/mL (≈ 0.0581 µM)

CCCCSC[C@H]1NC(c2c[nH]c3c(N)ncnc23)[C@H](O)[C@@H]1O (some centres unmarked) [Compound 43]
Ki [1, 6]: 0.51 ± 0.07 nM
Ki ([1]; Table 4, Immucillin-A series, read-out: Inhibition of H. pylori MTAN Ki*): 0.05 ± 0.01 nM
MIC90 [2, 7]: 0.02 µg/mL (≈ 0.0593 µM)

Nc1ncnc2c(CN3C[C@H](CSc4cnccn4)[C@@H](O)C3)c[nH]c12 [Compound 27, (3R,4S)-1-({4-Amino-5H-pyrrolo[3,2-d]pyrimidin-7-yl}methyl)-4-[(pyrazin-2-ylthio)methyl]pyrrolidin-3-ol]
Ki [1, 3]: 0.043 ± 0.001 nM
Ki [1, 4]: 0.006 nM
MIC90 [2, 5]: 0.008 µg/mL (≈ 0.0224 µM)

Nc1ncnc2c(CN3CC(O)[C@@H](CSCCO)C3)c[nH]c12 (stereo partly drawn) [Compound 10, (4S)-1-((4-amino-5H-pyrrolo[3,2-d]pyrimidin-7-yl)methyl)-4-(((2-hydroxyethyl)thio)methyl)pyrrolidin-3-ol]
Ki [1, 3]: 0.43 ± 0.12 nM
Ki [1, 4]: 0.04 ± 0.01 nM

C#CCCCCSC[C@H]1CN(Cc2c[nH]c3c(N)ncnc23)C[C@@H]1O [Compound 14, (3R,4S)-1-({4-Amino-5H-pyrrolo[3,2-d]pyrimidin-7-yl}methyl)-4-[(hex-5-yn-1-ylthio)methyl]pyrrolidin-3-ol]
Ki [1, 3]: 0.5 ± 0.2 nM
Ki [1, 4]: 0.09 ± 0.02 nM
MIC90 [2, 5]: 0.004 to 0.008 µg/mL (≈ 0.0111 to 0.0223 µM)

Nc1ncnc2c(CN3CC(O)[C@@H](CSCCCO)C3)c[nH]c12 (stereo partly drawn) [Compound 11, (4S)-1-((4-Amino-5H-pyrrolo[3,2-d]pyrimidin-7-yl)methyl)-4-(((3-hydroxypropyl)thio)methyl)pyrrolidin-3-ol]
Ki [1, 3]: 0.89 ± 0.13 nM
Ki [1, 4]: 0.1 ± 0.01 nM
MIC90 [2, 5]: 0.04 µg/mL (≈ 0.119 µM)

CCCC[C@H]1CN(Cc2c[nH]c3c(N)ncnc23)C[C@@H]1O [Compound 33]
Ki [1, 3]: 0.058 ± 0.014 nM
Ki [1, 4]: 0.007 ± 0.002 nM
MIC90 [2, 5]: 0.01 µg/mL (≈ 0.0346 µM)

Nc1ncnc2c(CN3C[C@H](CSC4CCC4)[C@@H](O)C3)c[nH]c12 [Compound 40]
Ki [1, 3]: 0.27 ± 0.04 nM
Ki [1, 4]: 0.04 ± 0.01 nM

CCSC[C@H]1CN(Cc2c[nH]c3c(N)ncnc23)C[C@@H]1O [Compound 34]
Ki [1, 3]: 0.12 ± 0.03 nM
Ki [1, 4]: 0.52 ± 0.04 nM
MIC90 [2, 5]: 0.016 µg/mL (≈ 0.052 µM)

CCCCCCSC[C@H]1CN(Cc2c[nH]c3c(N)ncnc23)C[C@@H]1O [Compound 18, (3R,4S)-1-({4-Amino-5H-pyrrolo[3,2-d]pyrimidin-7-yl}methyl)-4-[(hexylthio)methyl]pyrrolidin-3-ol]
Ki [1, 3]: 0.21 ± 0.03 nM
Ki [1, 4]: 0.005 ± 0.002 nM
MIC90 [2, 5]: 0.004 to 0.008 µg/mL (≈ 0.011 to 0.022 µM)

CCCCCCSCC[C@H]1CN(Cc2c[nH]c3c(N)ncnc23)C[C@@H]1O [Compound 19, (3R,4S)-1-({4-Amino-5H-pyrrolo[3,2-d]pyrimidin-7-yl}methyl)-4-[2-(hexylthio)ethyl]pyrrolidin-3-ol]
Ki [1, 3]: 0.7 ± 0.1 nM
Ki [1, 4]: 0.14 ± 0.01 nM
MIC90 [2, 5]: 0.04 µg/mL (≈ 0.106 µM)

CCCSC[C@H]1NC(c2c[nH]c3c(N)ncnc23)[C@H](O)[C@@H]1O (some centres unmarked) [Compound 42]
Ki [1, 6]: 0.6 ± 0.1 nM
MIC90 [2, 7]: 0.016 µg/mL (≈ 0.0495 µM)
